1 compound from PMC8355150, “Bioactive recombinant human oncostatin M for NMR-based screening in drug discovery” (Scientific Reports, 2021) can be followed below.

Each structure is given as a SMILES string.

For the assay, the target named is T1, Oncostatin M (OSM, rhOSM) (Homo sapiens, UniProt P13725).
T1 construct: residues 1–187
T1 sequence (P13725 26-212): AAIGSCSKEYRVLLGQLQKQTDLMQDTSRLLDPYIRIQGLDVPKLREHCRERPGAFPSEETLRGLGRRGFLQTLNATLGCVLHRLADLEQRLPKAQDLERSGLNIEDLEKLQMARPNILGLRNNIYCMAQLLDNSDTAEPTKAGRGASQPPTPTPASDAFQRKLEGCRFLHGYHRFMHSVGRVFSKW
The experiment in a line: 1H, […] HSQC NMR titration (chemical shift perturbation); fluorescence quenching (Kd […]). The assay is classed as binding.

Regarding `O=C(O)/C=C/c1cc(-c2ccc3c(c2)OCO3)c(-c2ccc3c(c2)OCO3)o1` [OSM-SMI-10B], the equilibrium dissociation constant (Kd) was 12.2 ± 3.9 µM.

Usually Kd stands for a measure of binding affinity in units of concentration.
